From patent publication US20080299076A1, “Compunds and compositions that cause non-apoptotic cell death and uses thereof” (priority 2006, published 2008)
pEC50: −log10 of the molar value.

Key:
BJELR cells = assay: Erastin sensitivity after upregulation of VDAC proteins by nucleofection; type: cell-based, human
Source text: Quantitative western blot showing the ratio of VDACs (top band, green) to eif4E (bottom band, red) (e). […] Green, untransfected BJELR cells; blue, mock nucleofected BJELR cells; red, VDAC2/3-nucleofected BJELR cells (f).
In certain aspects, the invention provides that erastin acts by a gain-of-function mechanism and that cells with more VDAC proteins are more sensitive to erastin. A gain-of-function mechanism operates in cells which have increased levels of topoisomerase I and are thus more sensitive to camptothecin^149. […] In other embodiments, cell lines can be stably transfected with vectors expressing VDAC1, 2, and/or 3. Thus, increased VDAC expression leads to erastin sensitivity which is consistent with a gain of function mechanism. Furthermore, a knockdown of VDACs causes erastin resistance.

Caspase-3 = Caspase-3 cleavage (western blot); type: cell-based
[1] = tested on: BJ-TERT/LT/ST/RAS^V12 cells; assay: ATP detection; type: cell-based, human; conditions: erastin 20 μg/mL for 12 hours
Experimental: Cells were seeded in polystyrene 100×20 mm dishes (Falcon/#353003) in 10 mL of media. Three million cells were seeded in each dish for staurosporine (STS) and erastin treatment. Two million cells were seeded in each dish for no treatment and hydrogen peroxide treatment. Cells were treated with staurosporine (1 μM) for 12 hours, with H2O2 (16 mM) for 1.5 hours and erastin (20 μg/mL) for 12 hours. After the incubation, we counted cells using a CiCell analyzer (Beckman). 100,000 cells from each treatment were collected and washed twice in Hank's Salt Solution (10 ml). Next, we suspended cells in 200 μl of Nucleotide Releasing Buffer (BioVision/K254-200 ApoSensor Cell Viability Assay Kit) and incubated at room temperature for 10 minutes. To 10 μl of the above sample, we added 1 μl of ATP Minitoring Enzyme (BioVision/K254-200 ApoSensor Cell Viability Assay Kit) and read the ATP levels of the samples using a luminometer.
ATP levels were measured in BJERL cells treated with nothing (NT), treated with 1 μM of Staurosporine (STS) for 12 hours, with 16 mM of hydrogen peroxide for 1.5 hours and 20 μg/mL of erastin for 12 hours. ATP levels were normalized by number of viable cells.

[2] = tested on: BJ-TERT/LT/ST/RAS^V12 cells; assay: Cell death, viable cells counted using a hemacytometer; type: cell-based, human; conditions: 13 μM erastin A1, 23 μM antimycin, 126 μM 2-methoxyestradiol or the combinations
cytochrome c = assay: Cytochrome c release from mitochondria; type: cell-based, human; conditions: BJ-TERT/LT/ST/RAS^V12 cells; staurosporine 1 μM or erastin 20 μg/mL, 6 h
Experimental: BJ-TERT/LT/ST/RAS^V12 cells were seeded in polystyrene 100×20 mm dishes in 10 ml media. After overnight incubation at 37° C. with 5% CO2, the cells were treated with nothing (NT), staurosporine (ST, 1 μM) or erastin (20 μg/mL) for 6 h, washed with 10 mL ice-cold PBS and lysed by passage through a 25-gauge needle (five strokes). Cell lysates were centrifuged at 1850 rpm for 5 min at 4° C. to remove the nuclear fraction. Mitochondria were removed from the soluble cytosolic fraction by pelleting at 10,000 rpm. Supernatant and mitochondrial pellets were solubilized in SDS-PAGE loading buffer and analyzed by western blot using anti-cytochrome c and pan-VDAC antibodies and IR-dye-linked secondary antibodies. VDACs are mitochondrial proteins, so their absence in the cytosolic lane indicates effective separation of cytosol (C) from mitochondria (M). Fluorescence was detected on a LI-COR Odyssey infrared scanner.
For the cytochrome c release assay, cells were washed with 10 mL of ice-cold PBS, suspended in 120 μL of buffer (300 mM sucrose, 0.1% BSA, 10 mM HEPES, pH 7.5, 10 mM KCl, 1.5 mM MgCl2, 1 mM EGTA, 1 mM EDTA, 1 mM dithiothreitol, 2 mM phenylmethanesulfonyl fluoride and 1 protease inhibitor tablet (Roche)) and incubated on ice for 15 min. […] Supernatant and mitochondrial pellets were solubilized in SDS-PAGE loading buffer and analyzed by western blotting.

[3] = Stability in human plasma; type: in vitro ADME; conditions: after five hours
Experimental: (§1) The stability of erastin in mouse and human liver microsomes and in mouse and human plasma was assessed. In both human and mouse liver microsomes, after 1 hr, ˜30% of erastin was converted to its primary metabolite (the O-de-ethylated product). In both human and mouse plasma, only ˜10% of erastin was lost after five hours. Thus, erastin has sufficient metabolic and plasma stability to be tested in vivo in mice.

[4] = Stability in mouse liver microsomes; type: in vitro ADME; conditions: after 1 hr
Experimental: as §1

BJELR = assay: Response of tumor cell lines to erastin (dose-response); type: cell-based, human
Experimental: (§2) Given that oncogenic RAS activates at least four downstream pathways, analysis was performed to identify which downstream effects were necessary for erastin sensitivity. In certain embodiments, the invention provides that erastin inhibits growth and kills genuine tumor cells with RAS mutations. In other embodiments, the invention provides measures of the dose-response of 29 tumor cell lines to erastin, wherein there is at least 50% inhibition of viability in 18 of the cell lines (Table 4). Numerous sarcoma-derived tumor cell lines were sensitive to erastin, consistent with the fact that erastin was discovered in an engineered tumor cell line created from human fibroblasts.

BJEH = assay: as above; type: cell-based, human
Experimental: as §2

HT1080 = assay: as above; type: cell-based, human
Experimental: as §2

A673 = assay: as above; type: cell-based, human
Experimental: as §2

Question: For `CCOc1ccccc1-n1c(C(C)N2CCN(C(=O)COc3ccc(Cl)cc3)CC2)nc2ccccc2c1=O` (stereo not shown) [erastin, 2-(1-{4-[2-(4-Chloro-phenoxy)-acetyl]-piperazin-1-yl}-ethyl)-3-(2-ethoxy-phenyl)-3H-quinazolin-4-one], which “Increase in sensitivity to erastin” value (BJELR cells) is on record?
Answer: Its value is “about two to three-fold”.

Question: What about the Caspase-3 cleavage (Caspase-3) of the same molecule?
Answer: The Caspase-3 cleavage was “not cleaved”.

Question: And the “ATP levels per viable cell” value [1]?
Answer: The value was “decreased modestly”.

Question: And the “Cell death (%)” value [2]?
Answer: Its value is 100%.

Question: What about the “Cytochrome c release from mitochondria” value (cytochrome c) of the same molecule?
Answer: Its value is “does not induce cytochrome c release”.

Question: And the compound lost [3]?
Answer: Its compound lost is ~10%.

Question: And the “converted to primary metabolite (O-de-ethylated product)” value [4]?
Answer: The value was ~30%.

Question: What about the “Erastin Sensitivity (maximum percent killing, as fraction)” value (BJELR; BJ-TERT/LT/ST/RAS^V12) of the same molecule?
Answer: The value was 1.00.

Question: What about the Max % killing (BJELR; BJELR, foreskin fibroblasts w/TERT, LT, ST, RAS) of the same molecule?
Answer: Its Max % killing is 100%.

Question: What about the pEC50 (BJELR; Homo sapiens, BJeLR) of the same molecule?
Answer: Its pEC50 is 5.22.

Question: What about the “Erastin Sensitivity (maximum percent killing, as fraction)” value (BJEH; BJ-TERT) of the same molecule?
Answer: Its value is 0.22.

Question: What about the Max % killing (BJEH; BJEH, foreskin fibroblast w/TERT) of the same molecule?
Answer: Its Max % killing is 22%.

Question: And the pEC50 (BJEH; Homo sapiens, BJeH)?
Answer: Its pEC50 is 5.00.

Question: What about the “Erastin Sensitivity (maximum percent killing, as fraction)” value (HT1080; HT 1080) of the same molecule?
Answer: The value was 0.98.

Question: What about the Max % killing (HT1080; HT1080, Fibrosarcoma) of the same molecule?
Answer: The Max % killing was 98%.

Question: What about the pEC50 (HT1080; Homo sapiens, HT-1080, HT1080) of the same molecule?
Answer: Its pEC50 is 5.70.

Question: What about the “Erastin Sensitivity (maximum percent killing, as fraction)” value (A673; A673) of the same molecule?
Answer: The value was 0.54.

Question: What about the Max % killing (A673; A673, Ewing sarcoma) of the same molecule?
Answer: The Max % killing was 54%.

Question: What about the pEC50 (A673; Homo sapiens, A673) of the same molecule?
Answer: The pEC50 was 4.52.
